Legend:
Experiment in all cases: cell viability (% survival relative to DMSO control); higher = less cytotoxic
Conditions in all cases: 72 h
[1] = system: myeloid leukemia patient primary cells Pat.15
How it was run: (§1)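 Thawed mononuclear cells from AML or CML patients were purified on Ficoll and cultured for 72 h in RPMI 1640 with 10% FBS, at 10,000 cells/well, on 384-well plates carrying 70 pre-printed compounds at 1–10,000 nM in five tenfold steps, in duplicate. Viability came from CellTiter-Glo, normalised against DMSO and against 10 μM proteasome inhibitor. Any area under the curve given was derived from log-logistic curve fits in the drc and PharmacoGx R packages, and these fits had four parameters.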

[2] = system: myeloid leukemia patient primary cells Pat.5
How it was run: as §1

[3] = system: myeloid leukemia patient primary cells Pat.3
How it was run: as §1

Which cell viability ([1]; 1 nM) does the source give for C[C@H]1O[C@@H](O[C@H]2[C@@H](O)C[C@H](O[C@H]3[C@@H](O)C[C@H](O[C@H]4CC[C@@]5(C)[C@H](CC[C@@H]6[C@@H]5C[C@@H](O)[C@]5(C)[C@@H](C7=CC(=O)OC7)CC[C@]65O)C4)O[C@@H]3C)O[C@@H]2C)C[C@H](O)[C@@H]1O [Digoxin] here?
Its cell viability is 98.4%.

And the cell viability ([1]; 10 nM)?
Its cell viability is 98.4%.

What about the cell viability ([1]; 100 nM) of the same molecule?
The cell viability was 50.6%.

And the cell viability ([1]; 1000 nM)?
The cell viability was 1.74%.

What about the cell viability ([1]; 10000 nM) of the same molecule?
The cell viability was 1.52%.

What about the cell viability ([2]; 1 nM) of the same molecule?
Its cell viability is 82.9%.

And the cell viability ([2]; 10 nM)?
The cell viability was 77.9%.

And the cell viability ([2]; 100 nM)?
The cell viability was 9.05%.

What about the cell viability ([2]; 1000 nM) of the same molecule?
The cell viability was 2.24%.

And the cell viability ([2]; 10000 nM)?
Its cell viability is < 0%.

What about the cell viability ([3]; 1 nM) of the same molecule?
The cell viability was 94.1%.

What about the cell viability ([3]; 10 nM) of the same molecule?
Its cell viability is 81.3%.

And the cell viability ([3]; 100 nM)?
Its cell viability is 11.5%.

What about the cell viability ([3]; 1000 nM) of the same molecule?
The cell viability was 2.91%.

And the cell viability ([3]; 10000 nM)?
The cell viability was 1.13%.

How did the cell viability ([1]; 1 nM) turn out when Clc1ccc(COC(Cn2ccnc2)c2ccc(Cl)cc2Cl)cc1 (stereo not given) [Econazole] was run?
The cell viability was 84.3%.

And the cell viability ([1]; 10 nM)?
Its cell viability is 92.6%.

And the cell viability ([1]; 100 nM)?
Its cell viability is 98.3%.

What about the cell viability ([1]; 1000 nM) of the same molecule?
The cell viability was 89.4%.

What about the cell viability ([1]; 10000 nM) of the same molecule?
The cell viability was 68.7%.

What about the cell viability ([2]; 1 nM) of the same molecule?
The cell viability was 42.3%.

What about the cell viability ([2]; 10 nM) of the same molecule?
Its cell viability is 90.6%.

And the cell viability ([2]; 100 nM)?
Its cell viability is 35.2%.

What about the cell viability ([2]; 1000 nM) of the same molecule?
The cell viability was 6.55%.

What about the cell viability ([2]; 10000 nM) of the same molecule?
The cell viability was 1.33%.

What about the cell viability ([3]; 1 nM) of the same molecule?
The cell viability was 74.2%.

And the cell viability ([3]; 10 nM)?
The cell viability was 89.5%.

What about the cell viability ([3]; 100 nM) of the same molecule?
The cell viability was 93%.

And the cell viability ([3]; 1000 nM)?
Its cell viability is 70.1%.

And the cell viability ([3]; 10000 nM)?
Its cell viability is 1.03%.

Which cell viability ([1]; 1 nM) does the source give for C[C@]12O[C@H](C[C@]1(O)CO)n1c3ccccc3c3c4c(c5c6ccccc6n2c5c31)CNC4=O [Lestaurtinib] here?
Its cell viability is 97.1%.

What about the cell viability ([1]; 10 nM) of the same molecule?
The cell viability was 61.3%.

What about the cell viability ([1]; 100 nM) of the same molecule?
Its cell viability is 43.7%.

What about the cell viability ([1]; 1000 nM) of the same molecule?
The cell viability was 2.83%.

And the cell viability ([1]; 10000 nM)?
Its cell viability is 0.259%.

And the cell viability ([2]; 1 nM)?
The cell viability was 22.6%.

What about the cell viability ([2]; 10 nM) of the same molecule?
Its cell viability is 2.27%.

And the cell viability ([2]; 100 nM)?
Its cell viability is 10%.

What about the cell viability ([2]; 1000 nM) of the same molecule?
The cell viability was 11.2%.

And the cell viability ([2]; 10000 nM)?
Its cell viability is < 0%.

And the cell viability ([3]; 1 nM)?
The cell viability was 90.1%.

And the cell viability ([3]; 10 nM)?
Its cell viability is 53%.

What about the cell viability ([3]; 100 nM) of the same molecule?
The cell viability was 69%.

What about the cell viability ([3]; 1000 nM) of the same molecule?
Its cell viability is 16%.

And the cell viability ([3]; 10000 nM)?
The cell viability was 8.21%.

With CC(Cc1ccc(O)c(O)c1)C(C)Cc1ccc(O)c(O)c1 (stereo not given) [Masoprocol] as the molecule, how does the cell viability ([1]; 1 nM) read?
The cell viability was 89%.

And the cell viability ([1]; 10 nM)?
The cell viability was 93.8%.

And the cell viability ([1]; 100 nM)?
The cell viability was 94.4%.

And the cell viability ([1]; 1000 nM)?
The cell viability was 80.9%.

And the cell viability ([1]; 10000 nM)?
The cell viability was 31.1%.

What about the cell viability ([2]; 1 nM) of the same molecule?
Its cell viability is 57.1%.

What about the cell viability ([2]; 10 nM) of the same molecule?
Its cell viability is 7.88%.

And the cell viability ([2]; 100 nM)?
Its cell viability is 76.6%.

And the cell viability ([2]; 1000 nM)?
Its cell viability is 21.6%.

And the cell viability ([2]; 10000 nM)?
Its cell viability is > 100%.

What about the cell viability ([3]; 1 nM) of the same molecule?
Its cell viability is 90.1%.

And the cell viability ([3]; 10 nM)?
The cell viability was 91.5%.

And the cell viability ([3]; 100 nM)?
Its cell viability is 80.4%.

What about the cell viability ([3]; 1000 nM) of the same molecule?
Its cell viability is 35.8%.

And the cell viability ([3]; 10000 nM)?
The cell viability was 5.51%.

COc1c(C)c2c(c(O)c1C/C=C(\C)CCC(=O)O)C(=O)OC2 [Mycophenolic acid] was tested. Which cell viability ([1]; 1 nM) did it give?
Its cell viability is 91.6%.

What about the cell viability ([1]; 10 nM) of the same molecule?
The cell viability was 94.3%.

What about the cell viability ([1]; 100 nM) of the same molecule?
Its cell viability is 86.7%.

What about the cell viability ([1]; 1000 nM) of the same molecule?
Its cell viability is > 100%.

And the cell viability ([1]; 10000 nM)?
Its cell viability is 84.3%.

What about the cell viability ([2]; 1 nM) of the same molecule?
Its cell viability is < 0%.

What about the cell viability ([2]; 10 nM) of the same molecule?
Its cell viability is 62.9%.

What about the cell viability ([2]; 100 nM) of the same molecule?
The cell viability was 26%.

And the cell viability ([2]; 1000 nM)?
Its cell viability is 67.3%.

What about the cell viability ([2]; 10000 nM) of the same molecule?
The cell viability was > 100%.

What about the cell viability ([3]; 1 nM) of the same molecule?
The cell viability was 65.5%.

And the cell viability ([3]; 10 nM)?
Its cell viability is 81.3%.

And the cell viability ([3]; 100 nM)?
The cell viability was 99.4%.

What about the cell viability ([3]; 1000 nM) of the same molecule?
Its cell viability is 56.5%.

What about the cell viability ([3]; 10000 nM) of the same molecule?
The cell viability was 47.4%.

Which cell viability ([1]; 1 nM) does the source give for CCOC(=O)N1c2ccc(C(F)(F)F)cc2[C@@H](N(Cc2cc(C(F)(F)F)cc(C(F)(F)F)c2)C(=O)OC)C[C@H]1CC [Torcetrapib] here?
Its cell viability is 98.5%.

And the cell viability ([1]; 10 nM)?
The cell viability was 86%.

And the cell viability ([1]; 100 nM)?
Its cell viability is 97.7%.

And the cell viability ([1]; 1000 nM)?
Its cell viability is 87.1%.

What about the cell viability ([1]; 10000 nM) of the same molecule?
Its cell viability is 75.8%.

And the cell viability ([2]; 1 nM)?
The cell viability was 56.9%.

What about the cell viability ([2]; 10 nM) of the same molecule?
The cell viability was 0.265%.

What about the cell viability ([2]; 100 nM) of the same molecule?
The cell viability was 97.4%.

What about the cell viability ([2]; 1000 nM) of the same molecule?
The cell viability was 27.5%.

What about the cell viability ([2]; 10000 nM) of the same molecule?
The cell viability was 1.18%.

What about the cell viability ([3]; 1 nM) of the same molecule?
The cell viability was 97%.

What about the cell viability ([3]; 10 nM) of the same molecule?
Its cell viability is 62.9%.

And the cell viability ([3]; 100 nM)?
Its cell viability is 95.2%.

What about the cell viability ([3]; 1000 nM) of the same molecule?
Its cell viability is 88.7%.

What about the cell viability ([3]; 10000 nM) of the same molecule?
The cell viability was 22.4%.
